Columns and labels:
[1] = Human clinical biocomparison study: oral absorption from grazoprevir and Formulation 3 with and without pH-raising medication; conditions: in vivo, 100 mg grazoprevir/50 mg Compound I, healthy subjects
Procedure: The Formulation 2 spray dried intermediate was blended and roller compacted along with microcrystalline cellulose, lactose, croscarmellose sodium, sodium chloride, colloidal silicon dioxide, and magnesium stearate. Only half of the magnesium stearate was added prior to roller compaction. The second half of the magnesium stearate and the remaining croscarmellose sodium was added after roller compaction and the resulting powder mix was blended further.
The oral absorption obtained from grazoprevir and Formulation 3 with (Treatment 2) and without (Treatment 1) co-administration of a pH-raising medication was evaluated as part of human clinical study.

[2] = Human clinical biocomparison study: oral absorption of Formulation 1 with and without pH-raising medication; conditions: in vivo, 100 mg, healthy subjects
Procedure: FIG. 1 outlines the process used to make Formulation 1.
The oral absorption obtained from Formulation 1 with and without pH-modifying medications was evaluated as part of human clinical study. Formulation 1 was dosed by itself (Treatment 1) and in the presence of a medication that raises gastric pH (Treatment 2).

[3] = Treatment 1: grazoprevir and Formulation 3 without pH-raising medication
[4] = Treatment 1: Formulation 1 dosed by itself

AUC(0-inf) [1, 3]: 1.97 µM·h
Cmax [1, 3]: 102 nM
AUC(0-inf) ([1]; Treatment 2: grazoprevir and Formulation 3 with pH-raising medication): 1.79 µM·h
AUC(0-inf) [2, 4]: 3.77 µM·h
Cmax [2, 4]: 216 nM
AUC(0-inf) ([2]; Treatment 2: Formulation 1 with pH-raising medication): 1.57 µM·h
Structure (SMILES): COC(=O)N[C@H](C(=O)N1CCC[C@H]1c1nc(-c2ccc3c(c2)O[C@@H](c2ccccc2)n2c-3cc3cc(-c4c[nH]c([C@@H]5CCCN5C(=O)[C@@H](NC(=O)OC)C(C)C)n4)ccc32)c[nH]1)C(C)C [Compound I, dimethyl N,N′-([(6S)-6-phenylindolo[1,2-c][1,3]benzoxazine-3,10-diyl]bis {1H-imidazole-5,2-diyl-(2S)-pyrrolidine-2,1-diyl[(2S)-3-methyl-l-oxobutane-1,2-diyl]})dicarbamate]

Source: US20170368031A1, “SOLID DISPERSION FORMULATIONS OF ANTIVIRAL COMPOUNDS” (Merck Sharp & Dohme Corp., priority 2014, published 2017)
